Experimental data reported in ChEMBL document CHEMBL1201862, “PubChem BioAssay data set” (2004).
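Compound exposure: 48 hours, 5 concentrations, 96-well plates. GI50: concentration for 50% inhibition of growth.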 Calls of active or inactive are those of the source. Rule as the data show it: active = GI50 up to about 1.1 µM and inactive = higher.

Legend:
Assay in all cases: NCI anticancer screen, dose series, 48 h
[1] = tested on: EKVX
[2] = tested on: MOLT-4
[3] = tested on: OVCAR-4
[4] = tested on: COLO 205
[5] = tested on: SF-295
[6] = tested on: CAKI-1
[7] = tested on: PC-3
[8] = tested on: UACC-257
[9] = tested on: OVCAR-5
[10] = tested on: SR
[11] = tested on: SK-MEL-5
[12] = tested on: MCF7
[13] = tested on: SK-MEL-28
[14] = tested on: A498
[15] = tested on: KM12
[16] = tested on: K562
[17] = tested on: SNB-19
[18] = tested on: HCC 2998
[19] = tested on: SF-268
[20] = tested on: RPMI-8226

Measured: GI50

CCn1c(=O)c2c3ccc(OC)cc3[nH]c2c2ccc(OC)cc21
inactive: [1] 57.8 µM | [2] 22.6 µM | [3] 54.1 µM | [4] 39.4 µM | [5] 67.1 µM | [6] 55.2 µM | [7] 39.2 µM | [8] 71.3 µM | [9] > 100 µM | [10] 70.5 µM | [11] 37.2 µM | [12] 50.1 µM | [13] 63.1 µM | [14] 67.6 µM | [15] 8.18 µM | [16] 25.7 µM | [17] > 100 µM | [18] 21.2 µM | [19] 62.2 µM

O=C(CC1C=CCS1(=O)=O)NCc1ccccc1 (stereo unspecified)
inactive: [1] > 100 µM | [2] > 100 µM | [3] > 100 µM | [4] > 100 µM | [5] > 100 µM | [6] > 100 µM | [7] > 100 µM | [8] > 100 µM | [9] > 100 µM | [10] > 100 µM | [11] > 100 µM | [12] > 100 µM | [13] > 100 µM | [15] > 100 µM | [16] > 100 µM | [17] > 100 µM | [18] > 100 µM | [19] > 100 µM

COC(=O)C1(NC(=O)C(N)CC(=O)O)C(C)C1C (stereo unspecified)
inactive: [1] > 100 µM | [2] > 100 µM | [3] > 100 µM | [4] > 100 µM | [20] > 100 µM | [5] > 100 µM | [6] > 100 µM | [7] > 100 µM | [8] > 100 µM | [9] > 100 µM | [10] > 100 µM | [11] > 100 µM | [12] > 100 µM | [13] > 100 µM | [14] > 100 µM | [15] > 100 µM | [16] > 100 µM | [17] > 100 µM | [19] > 100 µM

COc1ccc(N2C(=O)C3c4[nH]c5ccc(C)cc5c4C4CCC(C(C)(C)C)CC4C3C2=O)cc1 (stereo unspecified)
inactive: [1] 31 µM | [2] 12.9 µM | [3] 3.35 µM | [4] 18.4 µM | [20] 11.2 µM | [5] 5.48 µM | [6] 10.3 µM | [7] 24.1 µM | [8] 23.8 µM | [10] 11.6 µM | [11] 20.7 µM | [12] 33 µM | [13] 11.5 µM | [15] 32.8 µM | [16] 13.4 µM | [17] 22.6 µM | [18] 41 µM | [19] 13 µM

CC(C)(C)C(=O)Oc1ccc(/C=C/C(=O)c2ccc(OC(=O)C(C)(C)C)cc2)cc1
inactive: [1] 81.1 µM | [2] 24.4 µM | [3] 56.2 µM | [4] 69.7 µM | [5] 93.3 µM | [6] 21.1 µM | [7] > 100 µM | [8] 60.5 µM | [9] > 100 µM | [10] 20.7 µM | [11] > 100 µM | [12] 46.5 µM | [13] 97.3 µM | [14] 81.5 µM | [15] 16.6 µM | [16] 26.3 µM | [17] 45.2 µM | [18] > 100 µM | [19] 74 µM

O=[N+]([O-])c1ccc(S[C@@H]2[C@H]3c4c(-c5ccccc5)[nH]c(-c5ccccc5)c4[C@@H]2C[C@H]3Cl)cc1
inactive: [3] 1.6 µM | [4] 6.17 µM | [5] 3.71 µM | [6] 3.38 µM | [7] 3.8 µM | [8] 14.8 µM | [9] 9.95 µM | [10] 1.14 µM | [11] 4.66 µM | [12] 2.31 µM | [13] 18.1 µM | [14] 4.82 µM | [15] 3.05 µM | [17] 4.6 µM | [19] 2.68 µM

Cc1ccc(S(=O)(=O)/N=C(\NN)Nc2ccc(Cl)cc2)cc1
inactive: [1] > 100 µM | [2] > 100 µM | [3] > 100 µM | [4] > 100 µM | [20] > 100 µM | [5] > 100 µM | [6] > 100 µM | [7] > 100 µM | [8] > 100 µM | [9] > 100 µM | [10] 83.9 µM | [11] > 100 µM | [12] > 100 µM | [13] > 100 µM | [14] > 100 µM | [15] > 100 µM | [16] > 100 µM | [17] > 100 µM

CC(=O)Nc1[nH]c(C#N)nc1C#N
inactive: [1] > 100 µM | [2] > 100 µM | [3] > 100 µM | [4] > 100 µM | [20] > 100 µM | [5] > 100 µM | [6] > 100 µM | [7] > 100 µM | [8] > 100 µM | [9] > 100 µM | [11] > 100 µM | [12] > 100 µM | [13] > 100 µM | [14] > 100 µM | [15] > 100 µM | [16] > 100 µM | [17] > 100 µM | [18] > 100 µM | [19] > 100 µM

O=C(c1ccco1)N(C(=S)OC12CC3CC(CC(C3)C1)C2)c1ccccc1
inactive: [1] 18.8 µM | [2] 24.4 µM | [3] 36.1 µM | [4] 16.4 µM | [5] 27.7 µM | [6] 33.3 µM | [7] 20.5 µM | [8] 30.9 µM | [9] 39.7 µM | [10] 25.7 µM | [11] 17.7 µM | [12] 26.2 µM | [13] 37.9 µM | [14] 23.3 µM | [15] 31.2 µM | [16] 28.6 µM | [17] 34.7 µM | [18] 25.1 µM | [19] 32.9 µM

CC(=O)c1ccccc1NCC(=O)Nn1cnc2ccc(S(=O)(=O)Nc3ccccc3C(C)=O)cc2c1=O
inactive: [1] > 100 µM | [2] > 100 µM | [3] > 100 µM | [4] > 100 µM | [20] > 100 µM | [5] > 100 µM | [6] > 100 µM | [7] > 100 µM | [8] > 100 µM | [9] > 100 µM | [10] > 100 µM | [12] > 100 µM | [13] > 100 µM | [15] > 100 µM | [16] > 100 µM | [17] > 100 µM | [18] > 100 µM | [19] > 100 µM

Cc1ccc2c3c(cnc2n1)C(=O)OCCN3C
inactive: [1] > 100 µM | [2] > 100 µM | [3] > 100 µM | [4] > 100 µM | [5] > 100 µM | [6] > 100 µM | [7] > 100 µM | [8] > 100 µM | [9] > 100 µM | [10] > 100 µM | [11] > 100 µM | [12] > 100 µM | [13] > 100 µM | [14] > 100 µM | [15] > 100 µM | [16] > 100 µM | [17] > 100 µM | [18] > 100 µM | [19] > 100 µM

CCC1(CC)C(=O)NN(C(=O)c2ccc(Cl)cc2)C1=O
inactive: [1] > 100 µM | [2] > 100 µM | [3] > 100 µM | [4] > 100 µM | [20] > 100 µM | [5] > 100 µM | [6] > 100 µM | [7] > 100 µM | [8] > 100 µM | [9] > 100 µM | [10] > 100 µM | [11] > 100 µM | [12] > 100 µM | [13] > 100 µM | [15] > 100 µM | [16] > 100 µM | [17] > 100 µM | [18] > 100 µM | [19] > 100 µM

COc1c(-c2nc3ccc(N4CCN(C)CC4)cc3[nH]2)cc(OC)c2[nH]c(COC(C)=O)nc12
inactive: [1] 98.4 µM | [2] 45 µM | [3] 29.8 µM | [4] 50.1 µM | [20] 34.7 µM | [5] 71.8 µM | [6] > 100 µM | [7] 37.1 µM | [8] 53.5 µM | [9] > 100 µM | [10] 27.8 µM | [11] 94.6 µM | [12] 38.7 µM | [13] > 100 µM | [14] > 100 µM | [15] 31.3 µM | [16] 56.6 µM | [17] 36 µM | [19] 94.8 µM

O=C(O)c1ccccc1/N=N/c1c(O)c(S(=O)(=O)O)cc2cc(S(=O)(=O)O)ccc12
inactive: [1] > 100 µM | [2] > 100 µM | [3] > 100 µM | [4] > 100 µM | [5] > 100 µM | [6] > 100 µM | [7] > 100 µM | [8] > 100 µM | [9] > 100 µM | [10] > 100 µM | [11] > 100 µM | [12] > 100 µM | [13] > 100 µM | [14] > 100 µM | [15] 84.3 µM | [16] > 100 µM | [17] > 100 µM | [18] > 100 µM | [19] > 100 µM

Cc1ccc(S(=O)(=O)N/N=C2/CCC3(O)CC2(C)CCC2[C@H]3CC2(C)C)cc1 (stereo partly specified)
inactive: [1] 31.7 µM | [2] 11.4 µM | [3] 35.9 µM | [4] 16.3 µM | [20] 38.4 µM | [5] 25.1 µM | [6] 52.6 µM | [7] 12.5 µM | [8] 37.8 µM | [9] 29.4 µM | [10] 35.9 µM | [11] 16.5 µM | [12] 35.5 µM | [13] 24.9 µM | [15] 32.6 µM | [16] 16.9 µM | [17] 37.7 µM | [19] 68.1 µM
